One assay addresses KRAS G12D (Homo sapiens, UniProt P01116, G12D). The assay is described as follows: KRAS G12D Probe Displacement Assay (TR-FRET, GDP-loaded). Type of assay: binding. An excerpt: (§1) The synthetic routes of probe 1 and 2, which have been disclosed in PCT/CN2022/070676, are hereby incorporated herein.
For another assay, the target named is WT KRAS (Homo sapiens, UniProt P01116). The experiment in a line: KRAS WT Probe Displacement Assay (TR-FRET, GDP-loaded). Format: binding.
From the text: as §1

[1] abbreviates: KRAS G12D, read-out: KRAS^G12D Probe Displacement Assay IC50.
[2] abbreviates: KRAS WT, read-out: KRAS^WT Probe Displacement Assay IC50.
Setting [3] is: KRAS^G12D Probe Displacement Assay IC50, KRAS G12D.
Where [4] appears, read: KRAS^WT Probe Displacement Assay IC50, KRAS WT.

Counter-ions that a name gives are not always drawn. Like-named read-outs stand apart in the source and are kept apart here.

Chain of KRAS G12D (P01116 1-188 isoform P01116-2 G12D): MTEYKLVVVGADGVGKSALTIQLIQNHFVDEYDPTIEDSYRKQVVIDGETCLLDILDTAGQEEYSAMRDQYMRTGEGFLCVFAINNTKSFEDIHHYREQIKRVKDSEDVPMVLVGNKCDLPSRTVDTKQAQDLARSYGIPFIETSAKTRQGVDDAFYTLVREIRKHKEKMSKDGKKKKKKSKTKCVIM
Chain of WT KRAS (P01116 1-188 isoform P01116-2): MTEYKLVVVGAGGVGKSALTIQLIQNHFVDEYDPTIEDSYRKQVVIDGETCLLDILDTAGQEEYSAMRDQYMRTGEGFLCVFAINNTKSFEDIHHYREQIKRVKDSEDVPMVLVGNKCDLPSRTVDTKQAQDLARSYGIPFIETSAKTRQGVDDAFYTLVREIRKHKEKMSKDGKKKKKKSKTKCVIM

Usually IC50 stands for the point on the concentration scale where inhibition reaches its midpoint. In the case of `Cc1cc(N)cc(-c2nc3c4c(nc(OCC5(CN6C[C@@H](C)O[C@@H](C)C6)CC5)nc4c2F)N2C[C@H]4CC[C@H](N4)[C@H]2CCO3)c1C(F)(F)F` [Example 64, 3-((6aR,7S,10R)-13-((1-(((2S,6R)-2,6-dimethylmorpholino)methyl)cyclopropyl)methoxy)-1-fluoro-5,6,6a,7,8,9,10,11-octahydro-4-oxa-3,11a,12,14,15-pentaaza-7,10-methanocyclohepta[4,5]cycloocta [1,2,3-de]naphthalen-2-yl)-5-methyl-4-(trifluoromethyl)aniline], the IC50 was under 0.3 nM on KRAS G12D (setting [1]) and 0.3 to 3 nM on WT KRAS (setting [2]).
`Cc1cc(N)cc(-c2nc3c4c(nc(OCC5(CN6CCCC(O)(C(F)(F)F)C6)CC5)nc4c2F)N2C[C@H]4CC[C@H](N4)[C@H]2CCO3)c1C(F)(F)F` (stereo partly drawn) [Example 117, 1-((1-((((6aR,7S,10R)-2-(5-amino-3-methyl-2-(trifluoromethyl)phenyl)-1-fluoro-5,6,6a,7,8,9,10,11-octahydro-4-oxa-3,11a,12,14,15-pentaaza-7,10-methanocyclohepta [4,5]cycloocta [1,2,3-de]naphthalen-13-yl)oxy)methyl)cyclopropyl)methyl)-3-(trifluoromethyl) piperidin-3-ol]: the figures for the IC50 at KRAS G12D (setting [1]) and at WT KRAS (setting [2]) were under 0.3 nM and 3 to 1000 nM, respectively.
As to `CN(C)C[C@]1(COc2nc3c4c(nc(-c5cc(N)cc(Cl)c5C(F)(F)F)c(F)c4n2)OCC[C@@H]2[C@@H]4CC[C@H](CN32)N4)CC1(F)F` [Example 44, 3-chloro-5-((6aR,7S,10R)-13-(((S)-1-((dimethylamino)methyl)-2,2-difluorocyclopropyl)methoxy)-1-fluoro-5,6,6a,7,8,9,10,11-octahydro-4-oxa-3,11a,12,14,15-pentaaza-7,10-methanocyclohepta[4,5]cycloocta [1,2,3-de]naphthalen-2-yl)-4-(trifluoromethyl)aniline], the IC50 is under 0.3 nM at KRAS G12D (setting [1]) and 0.3 to 3 nM on WT KRAS (setting [2]).
The corresponding values for `Cc1cc(N)cc(-c2nc3c4c(nc(N5CC(C)(N(C)C)C5)nc4c2F)N2C[C@H]4CC[C@H](N4)[C@H]2CCO3)c1C(F)(F)F` [Example 30] are 0.3 to 3 nM and 3 to 1000 nM.
For `Cc1cc(N)cc(-c2nc3c4c(nc(OCC5(CN6CC=CCC6)CC5)nc4c2F)N2C[C@H]4CC[C@H](N4)[C@H]2CCO3)c1C(F)(F)F` [Example 112, 3-((6aR,7S,10R)-13-((1-((3,6-dihydropyridin-1(2H)-yl)methyl)cyclopropyl)methoxy)-1-fluoro-5,6,6a, 7,8,9,10,11-octahydro-4-oxa-3,11a,12,14,15-pentaaza-7,10-methanocyclohepta [4,5]cycloocta [1,2,3-de]naphthalen-2-yl)-5-methyl-4-(trifluoromethyl) aniline], the IC50 at KRAS G12D (setting [3]) was under 0.3 nM; at WT KRAS (setting [4]), 3 to 1000 nM.
Consider `Cc1cc(N)cc(-c2nc3c4c(nc(OCC5(CN6C[C@H](C)O[C@@H](C)C6)CC5(F)F)nc4c2F)N2C[C@H]4CC[C@H](N4)[C@H]2CCO3)c1C(F)(F)F` (single isomer, unassigned) [Example 26], for which the IC50 lay within 0.3 to 3 nM at KRAS G12D (setting [1]) and 3 to 1000 nM on WT KRAS (setting [2]).
The matching figures for `Cc1cc(N)cc(-c2nc3c4c(nc(OCC5(CN6CCC(O)(C(F)(F)F)CC6)CC5)nc4c2F)N2C[C@H]4CC[C@H](N4)[C@H]2CCO3)c1C(F)(F)F` [Example 114, 1-((1-((((6aR,7S,10R)-2-(5-amino-3-methyl-2-(trifluoromethyl)phenyl)-1-fluoro-5,6,6a,7,8,9,10,11-octahydro-4-oxa-3,11a,12,14,15-pentaaza-7,10-methanocyclohepta [4,5]cycloocta [1,2,3-de]naphthalen-13-yl)oxy)methyl)cyclopropyl)methyl)-4-(trifluoromethyl) piperidin-4-ol]: under 0.3 nM and 0.3 to 3 nM.
Take `CCN1CCN(CC2(COc3nc4c5c(nc(-c6cc(N)cc(C)c6C(F)(F)F)c(F)c5n3)OCC[C@@H]3[C@@H]5CC[C@H](CN43)N5)CC2)CC1` [Example 152, 3-((6aR,7S,10R)-13-((1-((4-ethylpiperazin-1-yl)methyl)cyclopropyl)methoxy)-1-fluoro-5,6,6a,7,8,9,10,11-octahydro-4-oxa-3,11a,12,14,15-pentaaza-7,10-methano-cyclohepta[4,5]cycloocta [1,2,3-de]naphthalen-2-yl)-5-methyl-4-(trifluoromethyl) aniline]: the IC50 is under 0.3 nM at KRAS G12D (setting [3]) and 3 to 1000 nM on WT KRAS (setting [4]).
Consider `[2H]C([2H])([2H])N1C[C@H](OC)C[C@H]1[C@H](C)Oc1nc2c3c(nc(-c4cc(N)cc(Cl)c4C(F)(F)F)c(F)c3n1)OCC[C@@H]1[C@@H]3CC[C@H](CN21)N3` [Example 220, 3-chloro-5-((6aR,7S,10R)-1-fluoro-13-((S)-1-((2S,4R)-4-methoxy-1-(methyl-d3)pyrrolidin-2-yl)ethoxy)-5,6,6a,7,8,9,10,11-octahydro-4-oxa-3,11a,12,14,15-pentaaza-7,10-methanocyclohepta[4,5]cycloocta[1,2,3-de]naphthalen-2-yl)-4-(trifluoromethyl)aniline], for which the IC50 on KRAS G12D (setting [1]) was under 0.3 nM; at WT KRAS (setting [2]), 3 to 1000 nM.
Consider `Cc1cc(N)cc(-c2nc3c4c(nc(OCC5(C6CCCN6C)CC5)nc4c2F)N2C[C@H]4CC[C@H](N4)[C@H]2CCO3)c1C(F)(F)F` (mixture of isomers) [Example 63, 3-((6aR,7S,10R)-1-fluoro-13-((1-(1-methylpyrrolidin-2-yl)cyclopropyl)methoxy)-5,6,6a,7,8,9,10,11-octahydro-4-oxa-3,11a,12,14,15-pentaaza-7,10-methanocyclohepta[4,5]cycloocta[1,2,3-de]naphthalen-2-yl)-5-methyl-4-(trifluoromethyl)aniline], for which the figures for the concentration for half-maximal inhibition (IC50) on KRAS G12D (setting [1]) and on WT KRAS (setting [2]) were under 0.3 nM and 3 to 1000 nM, respectively.
The corresponding values for `Nc1cc(Cl)c(C(F)(F)F)c(-c2nc3c4c(nc(OC[C@@]56CCCN5CC(=C(F)F)C6)nc4c2F)N2C[C@H]4CC[C@H](N4)[C@H]2CCO3)c1` [Example 201, 3-chloro-5-((6aR,7S,10R)-13-(((S)-2-(difluoromethylene)tetrahydro-1H-pyrrolizin-7a(5H)-yl)methoxy)-1-fluoro-5,6,6a,7,8,9,10,11-octahydro-4-oxa-3,11a,12,14,15-pentaaza-7,10-methanocyclohepta[4,5]cycloocta[1,2,3-de]naphthalen-2-yl)-4-(trifluoromethyl)aniline] are under 0.3 nM and 0.3 to 3 nM.
For the compound `Cc1cc(N)cc(-c2nc3c4c(nc(O[C@@H](C)[C@@H]5CCCN5CCF)nc4c2F)N2C[C@H]4CC[C@H](N4)[C@H]2CCO3)c1C(F)(F)F` [Example 250, 3-((6aR,7S,10R)-1-fluoro-13-((S)-1-((S)-1-(2-fluoroethyl)pyrrolidin-2-yl)ethoxy)-5,6,6a,7,8,9,10,11-octahydro-4-oxa-3,11a,12,14,15-pentaaza-7,10-methanocyclohepta[4,5]cycloocta[1,2,3-de]naphthalen-2-yl)-5-methyl-4-(trifluoromethyl)aniline], the IC50 at KRAS G12D (setting [1]) is under 0.3 nM; at WT KRAS (setting [2]) it was 3 to 1000 nM.
The corresponding values for `CO[C@H]1CN2C[C@H](F)C[C@]2(COc2nc3c4c(nc(-c5cc(N)cc(Cl)c5C(F)(F)F)c(F)c4n2)OCC[C@@H]2[C@@H]4CC[C@H](CN32)N4)C1` [Example 215, 3-chloro-5-((6aR,7S,10R)-1-fluoro-13-(((2R,6R,7aS)-2-fluoro-6-methoxytetrahydro-1H-pyrrolizin-7a(5H)-yl)methoxy)-5,6,6a,7,8,9,10,11-octahydro-4-oxa-3,11a,12,14,15-pentaaza-7,10-methanocyclohepta[4,5]cycloocta[1,2,3-de]naphthalen-2-yl)-4-(trifluoromethyl)aniline] are under 0.3 nM and 3 to 1000 nM.
The matching figures for `Cc1cc(N)cc(-c2nc3c4c(nc(OCC5(CN6C[C@H](O)[C@@H](F)C6)CC5)nc4c2F)N2C[C@H]4CC[C@H](N4)[C@H]2CCO3)c1C(F)(F)F` (stereo in doubt) [Example 94, trans-1-((1-((((6aR, 7S,10R)-2-(5-amino-3-methyl-2-(trifluoromethyl)phenyl)-1-fluoro-5,6,6a,7,8,9,10,11-octahydro-4-oxa-3,11a,12,14,15-pentaaza-7,10-methanocyclohepta [4,5]cycloocta[1,2,3-de]naphthalen-13-yl)oxy)methyl)cyclopropyl)methyl)-4-fluoropyrrolidin-3-ol formate]: under 0.3 nM and 3 to 1000 nM.
On to `COC1CN(CC2(COc3nc4c5c(nc(-c6cc(N)cc(C)c6C(F)(F)F)c(F)c5n3)OCC[C@@H]3[C@@H]5CC[C@H](CN43)N5)CC2)CC1F` (single isomer, unassigned) [Example 186], for which the half-maximal inhibitory concentration (IC50) at KRAS G12D (setting [1]) is under 0.3 nM; on WT KRAS (setting [2]) it was 3 to 1000 nM.
The corresponding values for `Cc1cc(N)cc(-c2nc3c4c(nc(OCC5(F)COCC5N(C)C)nc4c2F)N2C[C@H]4CC[C@H](N4)[C@H]2CCO3)c1C(F)(F)F` (stereo partly drawn) [Example 132, 4-((((6aR,7S,10R)-2-(5-amino-3-methyl-2-(trifluoromethyl)phenyl)-1-fluoro-5,6,6a,7,8,9,10,11-octahydro-4-oxa-3,11a,12,14,15-pentaaza-7,10-methanocyclohepta[4,5]cycloocta [1,2,3-de]naphthalen-13-yl)oxy)methyl)-4-fluoro-N,N-dimethyltetrahydrofuran-3-amine] are 0.3 to 3 nM and 3 to 1000 nM.
With `C=CCN1CCC[C@H]1[C@H](C)Oc1nc2c3c(nc(-c4cc(N)cc(C)c4C(F)(F)F)c(F)c3n1)OCC[C@@H]1[C@@H]3CC[C@H](CN21)N3` [Example 231, 3-((6aR,7S,10R)-13-((S)-1-((S)-1-allylpyrrolidin-2-yl)ethoxy)-1-fluoro-5,6,6a,7,8,9,10,11-octahydro-4-oxa-3,11a,12,14,15-pentaaza-7,10-methanocyclohepta[4,5]cycloocta[1,2,3-de]naphthalen-2-yl)-5-methyl-4-(trifluoromethyl)aniline], the IC50 was under 0.3 nM at KRAS G12D (setting [1]) and 3 to 1000 nM at WT KRAS (setting [2]).

Source of the values: patent US20260347373A1, “HETEROCYCLIC COMPOUNDS, COMPOSITIONS THEREOF, AND METHODS OF TREATMENT THEREWITH” (BeOne Medicines I GmbH, priority 2023, published 2026).
